Results from patent publication EP4000617A1, “COMPOSITIONS FOR USE IN THE TREATMENT OF LEUKAEMIA” (Fundació Institut de Recerca Contra la Leucèmia Josep …, priority 2020, dated 2022).

Tested on: Luc-positive MonoMac-1 AML cells
Test: Luc-positive MonoMac-1 AML xenograft in NSG mice, bioluminescence imaging
Format: in vivo, NOD-scid IL2Rgamma null (NSG) mice
Details: 10 mg/kg intraperitoneally on days 3, 4, 5, 6, 7, 10 and 11, at day 12, in comparison to the control

N,N-dimethyl 3-(10H-benz[b]indeno[2,1-d]thien-10-ylidene) -1-Propanamine [compound 87]
amount of AML cells: remarkable reduction
